Data published in PubChem BioAssay AID248 (DTP/NCI, 2004).
Toxic doses and inconclusive results are not listed. Cut-off read from the data, not from the text of the source: active = T/C of 150% or more; inactive = T/C below 125%.

Test system: L1210 leukemia ip in BDF1 mice, survival T/C
Assay: NCI In Vivo Anticancer Drug Screen. Data for tumor model L1210 Leukemia (intraperitoneal) in B6D2F1 (BDF1) mice
Details: endpoint: mean survival time, higher = longer survival
Procedure, shortened: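 Mice bearing the transplanted tumor received compound or vehicle. Survival of the treated group was divided by that of the vehicle-treated control group to give the ratio.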

[1] = dose: 100.0 mg/kg/injection, schedule: Q04DX003 (ip), vehicle: saline with Tween-80
[2] = dose: 200.0 mg/kg/injection, schedule: Q04DX003 (ip), vehicle: saline with Tween-80
[3] = dose: 400.0 mg/kg/injection, schedule: Q04DX003 (ip), vehicle: saline with Tween-80
[4] = dose: 100.0 mg/kg/injection, schedule: Q04DX002 (ip), vehicle: saline with Tween-80
[5] = dose: 200.0 mg/kg/injection, schedule: Q04DX002 (ip), vehicle: saline with Tween-80
[6] = dose: 100.0 mg/kg/injection, schedule: Q01DX009 (ip), vehicle: saline
[7] = dose: 100.0 mg/kg/injection, schedule: Q04DX003 (ip), vehicle: saline
[8] = dose: 200.0 mg/kg/injection, schedule: Q04DX003 (ip), vehicle: saline
[9] = dose: 100.0 mg/kg/injection, schedule: Q01DX001 (ip), vehicle: saline with Tween-80
[10] = dose: 200.0 mg/kg/injection, schedule: Q01DX001 (ip), vehicle: saline with Tween-80
[11] = dose: 400.0 mg/kg/injection, schedule: Q01DX001 (ip), vehicle: saline with Tween-80
[12] = dose: 200.0 mg/kg/injection, schedule: Q01DX009 (ip), vehicle: saline
[13] = dose: 400.0 mg/kg/injection, schedule: Q01DX009 (ip), vehicle: saline
[14] = dose: 400.0 mg/kg/injection, schedule: Q04DX003 (ip), vehicle: saline
[15] = dose: 100.0 mg/kg/injection, schedule: Q01DX001 (ip), vehicle: saline
[16] = dose: 200.0 mg/kg/injection, schedule: Q01DX001 (ip), vehicle: saline

Measured: T/C

CC(=O)Nc1c(C(N)=O)ncn1C1OC(COC(C)=O)C(OC(C)=O)C1OC(C)=O (stereo not drawn)
inactive: dose: 100.0 mg/kg/injection, schedule: Q01DX005 (ip), vehicle: saline 96 % of control | dose: 200.0 mg/kg/injection, schedule: Q01DX005 (ip), vehicle: saline 100 % of control

O=C(CS(=O)(=O)C1CCCCC1)C1CCCCC1
inactive: [1] 94 % of control | [2] 94 % of control | [3] 88 % of control

COC(=O)C1CC23CCCC12CC3 (stereo not drawn)
inactive: dose: 50.0 mg/kg/injection, schedule: Q04DX002 (ip), vehicle: saline with Tween-80 92 % of control | [4] 103 % of control | [5] 92 % of control

CCN1CCCC(Nc2nc(Nc3cc(Cl)cc(Cl)c3)nc3cc(Cl)ccc23)C1 (stereo not drawn)
inactive: dose: 100.0 mg/kg/injection, schedule: Q04DX003 (ip), vehicle: saline sonified 95 % of control | dose: 200.0 mg/kg/injection, schedule: Q04DX003 (ip), vehicle: saline sonified 97 % of control | dose: 400.0 mg/kg/injection, schedule: Q04DX003 (ip), vehicle: saline sonified 106 % of control

C1=NCCCN1
inactive: dose: 50.0 mg/kg/injection, schedule: Q01DX009 (ip), vehicle: saline 89 % of control | [6] 94 % of control | [7] 97 % of control | [8] 100 % of control

Cc1ccc(S(=O)(=O)N2CCOCCOCCOc3ccc4ccccc4c3-c3c(ccc4ccccc34)OCCOCC2)cc1
inactive: [9] 95 % of control | [10] 88 % of control | [11] 95 % of control

CCN(CC)CCC(=O)c1cccs1
inactive: [6] 87 % of control | [12] 89 % of control

NC(=O)c1ccc[n+](Cc2c(Cl)cccc2Cl)c1
inactive: dose: 1.56 mg/kg/injection, schedule: Q01DX009 (ip), vehicle: saline 111 % of control | dose: 3.12 mg/kg/injection, schedule: Q01DX009 (ip), vehicle: saline 122 % of control | dose: 6.25 mg/kg/injection, schedule: Q01DX009 (ip), vehicle: saline 122 % of control

NC(=O)NC1CCCC1
inactive: [1] 93 % of control | [2] 89 % of control | [3] 93 % of control

Cc1ccc(NC(=O)C(Br)C(Br)c2ccccc2)cc1Cl (stereo not drawn)
inactive: dose: 100.0 mg/kg/injection, schedule: Q01DX009 (ip), vehicle: Klucel (hydroxypropylcellulose) (HPC) 96 % of control | dose: 200.0 mg/kg/injection, schedule: Q01DX009 (ip), vehicle: Klucel (hydroxypropylcellulose) (HPC) 92 % of control | dose: 400.0 mg/kg/injection, schedule: Q01DX009 (ip), vehicle: Klucel (hydroxypropylcellulose) (HPC) 88 % of control

COC(=O)c1cc([N+](=O)[O-])ccc1Cl
inactive: [6] 87 % of control | [7] 98 % of control | [12] 95 % of control | [8] 97 % of control | [13] 101 % of control | [14] 95 % of control

Cc1c(C[N+](C)(C)C)c(=O)n(-c2ccccc2)n1C
inactive: [15] 104 % of control | [16] 98 % of control | dose: 400.0 mg/kg/injection, schedule: Q01DX001 (ip), vehicle: saline 98 % of control

O=[N+]([O-])c1ccc(N2CCCC2)nc1
inactive: [9] 107 % of control | [10] 93 % of control | [11] 100 % of control

CCOC(=O)c1cnn2c(=O)[nH]cnc12
inactive: [1] 98 % of control | [2] 109 % of control

CC(=O)OCOC(COC(C)=O)C1OCOC(COC(C)=O)C1OCOC(C)=O (stereo not drawn)
inactive: [4] 100 % of control | [5] 100 % of control | dose: 400.0 mg/kg/injection, schedule: Q04DX002 (ip), vehicle: saline with Tween-80 100 % of control

O=[N+]([O-])Nc1ccc(C(c2ccc(N[N+](=O)[O-])cc2)c2ccc([N+](=O)[O-])cc2)cc1
inactive: dose: 100.0 mg/kg/injection, schedule: Q01DX005 (ip), vehicle: saline with Tween-80 89 % of control | dose: 100.0 mg/kg/injection, schedule: Q01DX009 (ip), vehicle: saline with Tween-80 100 % of control | dose: 200.0 mg/kg/injection, schedule: Q01DX005 (ip), vehicle: saline with Tween-80 100 % of control | dose: 200.0 mg/kg/injection, schedule: Q01DX009 (ip), vehicle: saline with Tween-80 92 % of control | dose: 400.0 mg/kg/injection, schedule: Q01DX005 (ip), vehicle: saline with Tween-80 89 % of control | dose: 400.0 mg/kg/injection, schedule: Q01DX009 (ip), vehicle: saline with Tween-80 94 % of control

C#CC(=O)CCCCCCl
inactive: dose: 6.25 mg/kg/injection, schedule: Q01DX009 (sc), vehicle: olive oil, sesame oil, peanut oil 100 % of control | dose: 12.5 mg/kg/injection, schedule: Q01DX009 (sc), vehicle: olive oil, sesame oil, peanut oil 94 % of control | dose: 12.5 mg/kg/injection, schedule: Q04DX002 (sc), vehicle: olive oil, sesame oil, peanut oil 103 % of control | dose: 25.0 mg/kg/injection, schedule: Q01DX009 (sc), vehicle: olive oil, sesame oil, peanut oil 97 % of control | dose: 25.0 mg/kg/injection, schedule: Q04DX002 (sc), vehicle: olive oil, sesame oil, peanut oil 95 % of control

CC[n+]1cn(-c2ccc(S(=O)(=O)[O-])cc2)nn1
inactive: [15] 101 % of control | [16] 110 % of control

C[n+]1ccccc1/C=C/c1ccc(O)c2ccccc12
inactive: dose: 15.0 mg/kg/injection, schedule: Q01DX001 (ip), vehicle: saline 97 % of control | dose: 30.0 mg/kg/injection, schedule: Q01DX001 (ip), vehicle: saline 91 % of control | dose: 60.0 mg/kg/injection, schedule: Q01DX001 (ip), vehicle: saline 103 % of control | dose: 75.0 mg/kg/injection, schedule: Q01DX001 (ip), vehicle: saline 103 % of control

CC(=O)C1C=NCC(C)(C)N=CC(C(C)=O)C(C)=NCCCN=C1C.[Ni] (stereo not drawn)
inactive: dose: 12.5 mg/kg/injection, schedule: Q01DX009 (ip), vehicle: Klucel (hydroxypropylcellulose) (HPC) 95 % of control | dose: 12.5 mg/kg/injection, schedule: Q04DX003 (ip), vehicle: Klucel (hydroxypropylcellulose) (HPC) 96 % of control | dose: 25.0 mg/kg/injection, schedule: Q01DX009 (ip), vehicle: Klucel (hydroxypropylcellulose) (HPC) 100 % of control | dose: 25.0 mg/kg/injection, schedule: Q04DX003 (ip), vehicle: Klucel (hydroxypropylcellulose) (HPC) 91 % of control | dose: 50.0 mg/kg/injection, schedule: Q01DX009 (ip), vehicle: Klucel (hydroxypropylcellulose) (HPC) 97 % of control | dose: 50.0 mg/kg/injection, schedule: Q04DX003 (ip), vehicle: Klucel (hydroxypropylcellulose) (HPC) 102 % of control

CC1=C(C)CC2C(=O)OC(=O)C2C1 (stereo not drawn)
inactive: [6] 98 % of control | dose: 100.0 mg/kg/injection, schedule: Q04DX003 (ip), vehicle: Klucel (hydroxypropylcellulose) (HPC) 106 % of control | [7] 98 % of control | [12] 102 % of control | dose: 200.0 mg/kg/injection, schedule: Q04DX003 (ip), vehicle: Klucel (hydroxypropylcellulose) (HPC) 95 % of control | [8] 105 % of control | [13] 98 % of control | dose: 400.0 mg/kg/injection, schedule: Q04DX003 (ip), vehicle: Klucel (hydroxypropylcellulose) (HPC) 98 % of control | [14] 105 % of control
